# Assays:
# [1] = molecular target: T1, IRAK4 (Homo sapiens, UniProt Q9NWZ3); experiment: IRAK4 protein degradation in THP1 cells (Western blot); type: cell-based; conditions: THP-1 cells, 24 h
# T1 construct: Effect of the Compounds on IRAK4 Protein Degradation in THP1 Cells; endogenous in cells; host or cells: THP-1 cells
# T1 sequence (Q9NWZ3 1-460): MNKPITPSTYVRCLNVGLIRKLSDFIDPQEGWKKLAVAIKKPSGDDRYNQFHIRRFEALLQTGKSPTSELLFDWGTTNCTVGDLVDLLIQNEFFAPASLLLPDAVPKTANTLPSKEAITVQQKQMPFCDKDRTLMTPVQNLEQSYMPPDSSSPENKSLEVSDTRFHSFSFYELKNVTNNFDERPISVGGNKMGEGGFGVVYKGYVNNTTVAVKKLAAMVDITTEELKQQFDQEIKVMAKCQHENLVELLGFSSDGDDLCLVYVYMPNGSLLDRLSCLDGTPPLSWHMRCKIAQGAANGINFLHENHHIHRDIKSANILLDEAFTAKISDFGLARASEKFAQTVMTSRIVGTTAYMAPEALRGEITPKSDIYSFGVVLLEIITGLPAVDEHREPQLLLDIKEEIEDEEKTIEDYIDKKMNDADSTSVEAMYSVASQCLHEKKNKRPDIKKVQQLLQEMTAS
# Method in brief: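 THP-1 cells (2×10^5/well) were treated with 5-fold serial compound dilutions for 24 h at 37 °C, then lysed with proteasome/phosphatase inhibitors. IRAK4 was detected by Western blot with chemiluminescence and semi-quantified by densitometry. DC50 came from the concentration–response.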
# [2] = system: R848-induced IL-6 secretion in human peripheral blood mononuclear cells (PBMCs); experiment: Inhibition of R848-induced IL-6 secretion in human PBMCs (IL-6 ELISA); type: cell-based; conditions: PBMC, R848 2.5 μg/mL, 20 h pre-incubation, 24 h stimulation
# Method in brief: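 Human PBMCs at 1.25×10^6 cells/mL were preincubated for 20 h at 37 °C with compound, starting at 1 μM in 4-fold dilutions. They were then stimulated with 2.5 μg/mL R848 for 24 h. Supernatant IL-6 was measured by ELISA at OD450 against a standard curve.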
# [3] = Metabolic stability in human liver microsome; type: in vitro ADME; conditions: liver microsomes, NADPH, 60 min, read-out: Human liver microsome (t1/2, min)
# Protocol: Clean incubation plates T60 and NCF60 were preheated at 37° C. for 10 min. Liver microsomes were diluted to a concentration of 0.56 mg/mL with 100 mM phosphate buffer, and 445 μL of the microsome working solution (0.56 mg/mL) was transferred to the preheated incubation plates T60 and NCF60, followed by incubation of the plates T60 and NCF60 with continuous shaking at 37° C. for 10 min. After incubation, 54 μL of liver microsomes were transferred to a blank plate, 6 μL of NAPDH cofactor was added to the blank plate, and then 180 μL of quenching solution was added to the blank plate. 5 μL of the compound working solution (100 μM) was added to the microsome-containing incubation plates T60 and NCF60, and mixed thoroughly 3 times. For plate NCF60, 50 μL of buffer was added and the system was mixed thoroughly 3 times before timing was started, and the plate was incubated with shaking at 37° C. for 60 min. For the quenching plate, 180 μL of quenching solution and 6 μL of NADPH cofactor were added, and the plate was ensured to be cooled to prevent evaporation. For the T60 plate, the mixture was thoroughly mixed 3 times, and 54 μL of the mixture was immediately transferred to the quenching plate at the time point of 0 min. Then 44 μL of the NAPDH cofactor was added to the incubation plate (T60). Timing was started, and the plate was incubated with shaking at 37° C. for 60 min. At the time points of 5, 15, 30, 45, and 60 min, 180 μL of the quenching solution was added to the quenching plate respectively, mixed once, and 60 μL of sample was continuously transferred from the plate T60 to the quenching plate at each time point. For plate NCF60, after mixing once, 60 μL of the sample was transferred from incubation plate NCF60 to the quenching plate containing quenching solution at the 60-min time point. All sampling plates were shaken for 10 min, then centrifuged at 4000 rpm at 4° C. for 20 min. 80 μL of the supernatant was transferred to 240 μL of HPLC water, and mixed using a plate shaker for 10 min. Each bioanalytical plate was sealed and shaken for 10 min before LC-MS/MS analysis.
# [4] = Pharmacokinetic experiment on SD rats (iv and intragastric); type: in vivo; conditions: Sprague-Dawley, rat, plasma, po; for bioavailability: ig 10.00 mg/kg vs iv 1.00 mg/kg, read-out: Oral bioavailability Fobs; for AUC / AUC(0-inf) / Cmax: ig, 10.00 mg/kg; for Cmax: read-out: Peak plasma concentration Cmax
SMILES,DC50 [1] [nM],half-life at 1 µM [3] [min],bioavailability [4] [%],AUC [4] [ng·h/mL],AUC(0-inf) [4] [ng·h/mL],Cmax [4] [ng/mL],IC50 [2] [nM]
CN(C)c1cc2nn([C@H]3CC[C@H](CN4C[C@@H](F)[C@@H](n5cc6cc(C7CCC(=O)NC7=O)c(F)cc6n5)C4)CC3)cc2cc1NC(=O)c1cnn2cccnc12 (stereo partly shown) [TM-240],2.61,98.6,29.9,7990 ± 3140,7990 ± 3120,976 ± 545,2.68
CN(C)c1cc2nn([C@H]3CC[C@H](CN4C[C@@H](n5cc6cc(C7CCC(=O)NC7=O)c(F)cc6n5)[C@@H](F)C4)CC3)cc2cc1NC(=O)c1cnn2cccnc12 (stereo partly shown) [TM-241],11.7,106,35.2,14200 ± 4660,14900 ± 4690,1650 ± 641,9.08
CN(C)c1cc2nn([C@H]3CC[C@H](CN4C[C@@H](F)[C@H](n5cc6cc(C7CCC(=O)NC7=O)ccc6n5)C4)CC3)cc2cc1NC(=O)c1cnn2cccnc12 (stereo partly shown) [TM-244],3.21,79.5,54.2,13000 ± 2900,13200 ± 2960,1330 ± 294,14.4

# These reach a lower DC50 [1]. Values come first.
DC50 [1] [nM],half-life at 1 µM [3] [min],bioavailability [4] [%],AUC [4] [ng·h/mL],AUC(0-inf) [4] [ng·h/mL],Cmax [4] [ng/mL],SMILES,IC50 [2] [nM]
2.38,139,38.8,8610 ± 4000,9310 ± 4680,814 ± 187,CN(C)c1cc2nn([C@H]3CC[C@H](CN4C[C@H](F)[C@@H](n5cc6cc(C7CCC(=O)NC7=O)c(F)cc6n5)C4)CC3)cc2cc1NC(=O)c1cnn2cccnc12 (stereo partly shown) [TM-249],4.37
1.56,–,–,–,–,–,CN(C)c1cc2nn([C@H]3CC[C@H](CN4C[C@@H](n5cc6cc(N7CCC(=O)NC7=O)ccc6n5)[C@@H](F)C4)CC3)cc2cc1NC(=O)c1cnn2cccnc12 [TM-205],3.78
1.41,87.4,63.7,14500 ± 1420,19000 ± 5060,1190 ± 92.3,CN(C)c1cc2nn([C@H]3CC[C@H](CN4C[C@@H](F)[C@H](n5cc6cc(C7CCC(=O)NC7=O)c(F)cc6n5)C4)CC3)cc2cc1NC(=O)c1cnn2cccnc12 (stereo partly shown) [TM-245],4.02
1.24,–,24.5,3630 ± 1500,4160 ± 1440,356 ± 201,CN(C)c1cc2nn([C@H]3CC[C@H](CN4CCC(n5cc6c(F)cc(N7CCC(=O)NC7=O)cc6n5)CC4)CC3)cc2cc1NC(=O)c1cnn2cccnc12 [TM-174],3.19
1.23,65,–,–,–,–,CN(C)c1cc2nn([C@H]3CC[C@H](CN4CC[C@@H](n5cc6cc(C7CCC(=O)NC7=O)c(F)cc6n5)[C@@H](F)C4)CC3)cc2cc1NC(=O)c1cnn2cccnc12 (stereo partly shown) [TM-135],4.53
